According to paper PMC10745721, “Chemical Comparison and Identification of Xanthine Oxidase Inhibitors of Dioscoreae Hypoglaucae Rhizoma and Dioscoreae Spongiosae Rhizoma by Chemometric Analysis and Spectrum–Effect Relationship” (Molecules, 2023):
pIC50: −log10 of the molar value.

Target: xanthine oxidase (Bos taurus, UniProt P80457)
Test: xanthine oxidase inhibitory assay in vitro (absorbance at 295 nm, uric acid from xanthine)
Assay type: biochemical
Settings: pure compounds, five concentrations each; read-out: IC50 of xanthine oxidase inhibition
Method: For xanthine oxidase inhibition assay, 600 μL of supernatant was concentrated in a Termovap Sample Concentrator (Hangzhou Miulab Instruments Co., Ltd., Hangzhou, China) at 30 °C until elimination of solvent. The residue was redissolved in 600 μL PBS.
The xanthine oxidase inhibitory activities of DH and DS samples were determined by xanthine oxidase inhibitory activity assay in vitro [25], which was based on the increase in absorbance at 295 nm due to the production of uric acid from xanthine. In brief, 50 µL of DH or DS samples, 30 µL of phosphate buffer (70 Mm, pH 7.5), and 40 µL of xanthine oxidase (0.05 U/mL) were added into a 96-well plate. After preincubation at 25 °C for 8 min, 60 µL of xanthine (300 µM) was added. After incubation at 25 °C for 15 min, the reaction was stopped by adding 20 µL of HCl (1.0 M). The absorbance of the mixture solution was recorded at 295 nm by a microplate reader.
The control sample was prepared by adding PBS instead of tested sample. The background sample was prepared by replacing tested sample with the same volume of PBS. The blank sample was prepared by adding PBS instead of xanthine oxidase solution. All experiments were repeated three times. The inhibition ratio of xanthine oxidase was calculated as follows:Inhibition ratio (%) = [1 − (test sample-background sample/control sample-blank sample)] × 100
DH and DS samples were prepared in a series of concentrations. The xanthine oxidase inhibitory activities of DH and DS samples were evaluated by IC50 values (the concentration of the sample inhibited 50% the activity of the xanthine oxidase, and the IC50 values were calculated by a logarithmic regression curve. As DH and DS samples were mixtures of multiple constituents, the molar concentrations were uncertain. Thus, the IC50 values of anti-xanthine oxidase activities of DH and DS samples were expressed as mg/mL raw drug equivalents.

Sequence of xanthine oxidase (P80457 whole entry): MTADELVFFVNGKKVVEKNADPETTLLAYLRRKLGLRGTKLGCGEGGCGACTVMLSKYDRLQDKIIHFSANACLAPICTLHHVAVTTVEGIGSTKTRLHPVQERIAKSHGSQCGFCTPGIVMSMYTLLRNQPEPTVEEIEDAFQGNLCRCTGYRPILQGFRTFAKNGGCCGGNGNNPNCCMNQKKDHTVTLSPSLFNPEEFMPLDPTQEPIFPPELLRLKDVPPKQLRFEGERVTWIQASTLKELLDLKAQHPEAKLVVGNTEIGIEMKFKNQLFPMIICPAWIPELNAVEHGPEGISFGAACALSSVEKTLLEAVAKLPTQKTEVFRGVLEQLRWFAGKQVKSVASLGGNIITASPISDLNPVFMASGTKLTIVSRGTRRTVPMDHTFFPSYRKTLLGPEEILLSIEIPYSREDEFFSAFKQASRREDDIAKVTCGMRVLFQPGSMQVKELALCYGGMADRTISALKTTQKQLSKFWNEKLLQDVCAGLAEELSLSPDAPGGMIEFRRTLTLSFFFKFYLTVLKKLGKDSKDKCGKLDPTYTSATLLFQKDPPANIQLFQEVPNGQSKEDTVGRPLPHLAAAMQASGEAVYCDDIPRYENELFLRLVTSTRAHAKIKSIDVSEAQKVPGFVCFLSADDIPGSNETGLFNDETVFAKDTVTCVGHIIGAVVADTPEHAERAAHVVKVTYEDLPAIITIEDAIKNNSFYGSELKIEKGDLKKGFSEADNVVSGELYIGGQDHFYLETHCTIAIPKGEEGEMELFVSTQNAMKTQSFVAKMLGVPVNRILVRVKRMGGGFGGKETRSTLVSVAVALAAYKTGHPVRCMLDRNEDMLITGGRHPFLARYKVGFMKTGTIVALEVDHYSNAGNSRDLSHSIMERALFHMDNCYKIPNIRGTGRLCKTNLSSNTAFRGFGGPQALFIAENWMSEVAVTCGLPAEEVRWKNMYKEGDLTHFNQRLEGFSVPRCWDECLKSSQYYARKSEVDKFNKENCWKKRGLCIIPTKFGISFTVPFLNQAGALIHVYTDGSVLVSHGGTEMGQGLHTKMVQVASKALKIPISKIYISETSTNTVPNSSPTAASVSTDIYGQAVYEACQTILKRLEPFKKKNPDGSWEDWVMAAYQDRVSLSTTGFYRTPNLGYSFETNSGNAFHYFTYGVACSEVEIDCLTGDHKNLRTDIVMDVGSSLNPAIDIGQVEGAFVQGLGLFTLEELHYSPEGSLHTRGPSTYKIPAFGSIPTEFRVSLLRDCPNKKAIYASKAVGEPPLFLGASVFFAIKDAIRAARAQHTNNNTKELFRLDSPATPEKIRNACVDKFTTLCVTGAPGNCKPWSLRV

Row | Compound | pIC50
1 | CC1=C(CC[C@@H](C)CO[C@@H]2O[C@H](CO)[C@@H](O)[C@H](O)[C@H]2O)OC2CC3C4CC=C5CC(O[C@@H]6O[C@H](CO)[C@@H](O)[C@H](O[C@@H]7O[C@H](CO)[C@@H](O)[C@H](O)[C@H]7O)[C@H]6O[C@@H]6O[C@@H](C)[C@H](O)[C@@H](O)[C@H]6O)CC[C@]5(C)C4CC[C@]3(C)C12 (stereo partly shown) [pseudoprogracillin] | 3.60
2 | CC(CCC1(O)OC2CC3C4CC=C5CC(OC6OC(CO)C(O)C(OC7OC(CO)C(O)C(O)C7O)C6OC6OC(C)C(O)C(O)C6O)CCC5(C)C4CCC3(C)C2C1C)COC1OC(CO)C(O)C(O)C1O (stereo not shown) [protogracillin] | 3.72
3 | CC(CCC1(O)OC2CC3C4CC=C5CC(OC6OC(CO)C(OC7OC(C)C(O)C(O)C7O)C(O)C6OC6OC(C)C(O)C(O)C6O)CCC5(C)C4CCC3(C)C2C1C)COC1OC(CO)C(O)C(O)C1O (stereo not shown) [protodioscin] | 3.70
4 | CO[C@]1(CC[C@@H](C)CO[C@@H]2O[C@H](CO)[C@@H](O)[C@H](O)[C@H]2O)O[C@H]2C[C@H]3[C@@H]4CC=C5C[C@@H](O[C@@H]6O[C@H](CO)[C@@H](O[C@@H]7O[C@@H](C)[C@H](O)[C@@H](O)[C@H]7O)[C@H](O)[C@H]6O[C@@H]6O[C@@H](C)[C@H](O)[C@@H](O)[C@H]6O)CC[C@]5(C)[C@H]4CC[C@]3(C)[C@H]2[C@@H]1C [methyl protodioscin] | 3.66
